Active and inactive are the calls of the source.
Legend:
Genome polyprotein = Genome polyprotein (dengue virus type 2, UniProt P29990); assay: flavivirus cap methylation enzyme inhibition – biochemical, confirmation dose response, primary screen (AID 588689); assay type: functional
[1] = molecular target: T1, Voltage-gated N-type calcium channel alpha-1B subunit/Amyloid beta A4 precursor protein-binding family A member 1 (Homo sapiens, UniProt Q00975+Q02410); assay type: protein assay
[2] = molecular target: T2, Rac GTPase-activating protein 1 (Homo sapiens, UniProt Q9H0H5); assay: blockers of MgcRacGAP-driven Rac1 GTP hydrolysis – biochemical, ADP Hunter fluorescence, primary and confirmatory, confirmation (AID 624330); assay type: functional
T2 sequence (Q9H0H5 whole entry): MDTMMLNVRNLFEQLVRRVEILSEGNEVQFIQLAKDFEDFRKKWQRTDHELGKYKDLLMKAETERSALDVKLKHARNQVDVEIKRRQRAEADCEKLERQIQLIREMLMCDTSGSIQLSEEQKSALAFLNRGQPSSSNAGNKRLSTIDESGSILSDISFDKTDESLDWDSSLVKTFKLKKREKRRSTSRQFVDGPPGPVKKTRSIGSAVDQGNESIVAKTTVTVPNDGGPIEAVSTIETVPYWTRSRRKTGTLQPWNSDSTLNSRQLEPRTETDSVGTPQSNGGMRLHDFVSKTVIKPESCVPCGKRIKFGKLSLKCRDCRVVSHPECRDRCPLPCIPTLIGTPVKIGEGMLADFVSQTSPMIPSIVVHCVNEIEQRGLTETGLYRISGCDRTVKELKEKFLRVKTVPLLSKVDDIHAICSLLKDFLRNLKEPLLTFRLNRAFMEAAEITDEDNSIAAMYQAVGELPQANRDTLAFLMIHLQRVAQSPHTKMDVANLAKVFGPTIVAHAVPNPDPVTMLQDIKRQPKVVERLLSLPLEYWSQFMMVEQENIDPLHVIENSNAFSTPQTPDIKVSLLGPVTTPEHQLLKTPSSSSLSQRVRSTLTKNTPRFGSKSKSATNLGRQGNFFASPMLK

[3] = molecular target: T1, Voltage-gated N-type calcium channel alpha-1B subunit/Amyloid beta A4 precursor protein-binding family A member 1; assay type: protein assay; remark: listed apart in the source
[4] = molecular target: T3, Polyadenylate-binding protein 1 (Homo sapiens, UniProt P11940); assay: MLLE domain peptide-binding blockers, IC50 – biochemical, fluorescence polarization, FITC-PAM2 peptide, dose response (AID 602259); assay type: functional; conditions: read-out: IC50_Mean
[5] = molecular target: T3, Polyadenylate-binding protein 1; assay: MLLE binding blockers, Cy5 peptide tracer – biochemical, fluorescence polarization, Cy5-PAM2 peptide, secondary, miRNA deadenylation inhibitor project, dose response (AID 602260); assay type: functional; conditions: read-out: IC50_Mean
[6] = molecular target: DNA damage-inducible transcript 3 protein (Mus musculus, UniProt P35639); assay type: functional, Cricetulus griseus
Troponin, cardiac muscle = Troponin, cardiac muscle (Homo sapiens, UniProt P19429+P45379+P63316); assay: Fluorescence-based biochemical high throughput dose response assay for activators of the calcium sensitivity of cardiac Regulated Thin Filaments (RTF). [Related pubchem assays (depositor defined):AID493008, AID493018, AID504382, AID504383]; assay type: protein-complex assay
[7] = luciferase reporter signal suppression in cells – H4 neuroglioma cells, luminescence, dose response (AID 1990); assay type: functional, cell-based
[8] = molecular target: G-protein coupled receptor 55 (Homo sapiens, UniProt Q9Y2T6); assay: inhibition of LPI-stimulated GPR55 beta-arrestin translocation – imaging, U2OS, beta-arrestin-GFP, LPI agonist, primary screen (AID 2013); assay type: functional;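 also: antagonist potency measured as reduced agonist-driven arrestin aggregation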
[9] = Luminescence Cell-Based Dose Response HTS to Identify Inhibitors of 5'UTR Stem-Loop Driven Prion Protein mRNA Translation in H4 Neuroglioblastoma Cells. [Related pubchem assays: 1827 (Project Summary), 1813 (Primary HTS)]; assay type: functional
[10] = alpha-synuclein stem-loop luciferase translation blockers – H4 neuroglioma cells, luminescence, confirmation (AID 1988); assay type: functional, cell-based
[11] = NIH3T3 cell viability loss – ATP luminescence, mouse fibroblasts, counter-screen, dose response (AID 2010); assay type: functional, cell-based;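 also: cells exposed to compound for about 90 hours before reading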
[12] = molecular target: T4, Ubiquitin-conjugating enzyme E2 N (Homo sapiens, UniProt P61088); assay type: functional
T4 sequence (P61088 whole entry): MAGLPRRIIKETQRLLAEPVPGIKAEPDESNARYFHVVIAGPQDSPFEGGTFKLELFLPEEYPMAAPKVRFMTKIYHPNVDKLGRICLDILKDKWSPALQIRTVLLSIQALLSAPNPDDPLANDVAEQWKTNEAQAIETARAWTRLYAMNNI

[13] = molecular target: T4, Ubiquitin-conjugating enzyme E2 N; assay type: functional; remark: listed apart in the source
[14] = Trypanosoma cruzi growth suppression in host cells – NIH3T3 host cells, beta-gal luminescence, confirmation (AID 2044); assay type: functional, cell-based;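 also: intracellular parasites grown in NIH/3T3 mouse fibroblasts as host cells; luminescent beta-galactosidase reporter signal from transgenic T. cruzi replicating inside host cells; inhibitors lower the luminescence signal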
Bcl-2-related protein A1 = molecular target: T5, Bcl-2-related protein A1 (Mus musculus, UniProt Q07440); assay type: functional;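 also: confirmatory dose–response counterscreen on Bfl-1, used to check hits from a UBC13 polyubiquitin inhibitor campaign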
T5 sequence (Q07440 whole entry): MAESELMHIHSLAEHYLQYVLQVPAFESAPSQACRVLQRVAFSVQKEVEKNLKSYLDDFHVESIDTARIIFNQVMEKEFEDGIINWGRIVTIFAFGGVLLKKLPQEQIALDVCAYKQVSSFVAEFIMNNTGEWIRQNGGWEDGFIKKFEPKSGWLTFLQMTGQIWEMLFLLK

[15] = molecular target: DNA dC->dU-editing enzyme APOBEC-3G (Homo sapiens, UniProt Q9HC16); assay type: functional;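 also: Dose-response counterscreen measuring inhibition of APOBEC3G DNA deaminase activity, run while confirming APOBEC3A inhibitors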
[16] = molecular target: DNA dC->dU-editing enzyme APOBEC-3A (Homo sapiens, UniProt P31941); assay: Dose Response confirmation of small molecule APOBEC3A DNA Deaminase Inhibitors via a fluorescence-based single-stranded DNA deaminase assay. [Related pubchem assays (depositor defined):AID493011, AID493024]; assay type: functional
Large T antigen = Large T antigen (Simian virus 40, UniProt P03070); assay type: functional, Betapolyomavirus macacae;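 also: Confirmatory-stage PubChem screen for compounds that inhibit SV40 T antigen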
[17] = viability of HCT116 lacking mutant beta-catenin – cell-based, human colon tumor, dose response (AID 1045); assay type: functional;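 also: HCT116 colon tumor cells with beta catenin knocked out; cells exposed to compound for 60 hours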
[18] = viability of PTEN-deleted HCT116 cells – cell-based, HCT116 PTEN knockout, dose response (AID 1047); assay type: functional;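 also: HCT116 colon tumor cells with PTEN knocked out; cells exposed to compound for 60 hours before readout; potency for loss of cell viability measured by luminescence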
Beta-galactosidase [19] = molecular target: T6, Beta-galactosidase (Escherichia coli, UniProt Q8VNN2); assay: Dose response counterscreen for EBI2 assay utilizing the enzyme, b-galactosidase.; assay type: functional
[20] = molecular target: T3, Polyadenylate-binding protein 1; assay: PABP inhibition in translation initiation, SAR follow-up (AID 435018); assay type: functional
[21] = molecular target: Eukaryotic translation initiation factor 4H (Homo sapiens, UniProt Q15056); assay: inhibitors of translation initiation factor eIF4H – SAR follow-up (AID 435011); assay type: functional
Streptococcus = assay: GAS UMAA2166 growth inhibition – luminescence, BacTiterGlo, counter-screen for streptokinase expression inhibitor project, dose response (AID 1915); assay type: functional, organism-based;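 also: potency for reduction of bacterial viability or growth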
[22] = molecular target: T7, Kappa-type opioid receptor (Homo sapiens, UniProt P41145); assay type: functional
[23] = tested on: Streptococcus sp. 'group A'; assay: Streptococcus pyogenes SK(-)GAS viability under kanamycin – luminescence, BacTiterGlo, confirmation, counter-screen for streptokinase expression inhibitor project, dose response (AID 1900); assay type: functional, organism-based
[24] = molecular target: T7, Kappa-type opioid receptor; assay type: functional; remark: listed apart in the source
[25] = molecular target: T8, Type-1 angiotensin II receptor (Homo sapiens, UniProt P30556); assay: antagonism of angiotensin II type 1 receptor – cell-based, uHTS hits, selectivity assay for APJ receptor antagonist project, dose response (AID 463214); assay type: functional;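 also: antagonist potency against angiotensin II stimulated AT1 response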
T8 sequence (P30556 whole entry): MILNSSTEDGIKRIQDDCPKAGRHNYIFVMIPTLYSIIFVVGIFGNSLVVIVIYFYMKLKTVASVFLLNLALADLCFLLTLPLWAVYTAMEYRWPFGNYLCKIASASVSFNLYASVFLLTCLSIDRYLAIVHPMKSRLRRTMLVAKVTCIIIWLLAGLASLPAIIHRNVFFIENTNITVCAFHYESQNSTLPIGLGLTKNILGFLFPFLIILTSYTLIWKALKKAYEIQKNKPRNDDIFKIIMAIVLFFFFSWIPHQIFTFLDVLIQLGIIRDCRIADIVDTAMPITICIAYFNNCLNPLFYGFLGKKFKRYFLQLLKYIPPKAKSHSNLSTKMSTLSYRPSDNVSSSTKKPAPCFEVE

Estrogen receptor = molecular target: T9, Estrogen receptor (Homo sapiens, UniProt P03372);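 also: potency for inhibiting coactivator peptide recruitment to the receptor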
T9 sequence (P03372 whole entry): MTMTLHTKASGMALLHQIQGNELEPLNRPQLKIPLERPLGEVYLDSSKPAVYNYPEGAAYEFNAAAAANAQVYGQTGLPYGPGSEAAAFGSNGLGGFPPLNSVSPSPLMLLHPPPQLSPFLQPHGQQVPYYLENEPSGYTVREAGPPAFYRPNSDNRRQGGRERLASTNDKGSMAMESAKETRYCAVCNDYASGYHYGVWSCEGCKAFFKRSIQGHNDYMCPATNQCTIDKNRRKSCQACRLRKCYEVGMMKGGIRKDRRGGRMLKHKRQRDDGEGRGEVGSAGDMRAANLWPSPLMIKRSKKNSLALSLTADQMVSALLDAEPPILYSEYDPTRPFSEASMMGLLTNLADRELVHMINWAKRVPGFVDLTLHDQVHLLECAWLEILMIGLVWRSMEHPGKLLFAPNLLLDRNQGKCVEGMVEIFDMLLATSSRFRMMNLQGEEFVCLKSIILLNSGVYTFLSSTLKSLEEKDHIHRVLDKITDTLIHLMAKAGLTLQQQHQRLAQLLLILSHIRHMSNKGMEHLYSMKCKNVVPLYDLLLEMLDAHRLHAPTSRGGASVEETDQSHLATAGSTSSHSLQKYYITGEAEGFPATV

Streptokinase A = molecular target: T10, Streptokinase A (Streptococcus pyogenes serotype M1, UniProt P10520); assay: viability-normalized secreted streptokinase activity reduction – plasminogen activation absorbance, OD405, dose response (AID 1914); assay type: functional, Streptococcus pyogenes M1 GAS;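 also: secreted streptokinase activity via plasminogen activation per viability signal from cell pellet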
T10 sequence (P10520 whole entry): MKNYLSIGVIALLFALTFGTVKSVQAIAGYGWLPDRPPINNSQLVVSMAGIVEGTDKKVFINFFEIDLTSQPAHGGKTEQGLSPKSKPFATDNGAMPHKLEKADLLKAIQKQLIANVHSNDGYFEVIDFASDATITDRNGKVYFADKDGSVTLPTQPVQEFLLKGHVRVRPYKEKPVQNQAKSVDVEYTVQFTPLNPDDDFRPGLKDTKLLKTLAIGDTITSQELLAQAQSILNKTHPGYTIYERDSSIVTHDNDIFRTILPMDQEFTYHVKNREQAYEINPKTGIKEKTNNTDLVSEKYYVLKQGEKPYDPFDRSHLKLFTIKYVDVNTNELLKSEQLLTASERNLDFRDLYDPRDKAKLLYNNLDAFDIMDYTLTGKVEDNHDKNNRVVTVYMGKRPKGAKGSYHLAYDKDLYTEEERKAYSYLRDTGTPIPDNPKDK

Beta-galactosidase [26] = molecular target: T6, Beta-galactosidase; assay type: functional
Beta-galactosidase [27] = molecular target: T6, Beta-galactosidase; assay: PubChem AID 485352; assay type: functional

T3 sequence (P11940 whole entry, the tested form may be a part): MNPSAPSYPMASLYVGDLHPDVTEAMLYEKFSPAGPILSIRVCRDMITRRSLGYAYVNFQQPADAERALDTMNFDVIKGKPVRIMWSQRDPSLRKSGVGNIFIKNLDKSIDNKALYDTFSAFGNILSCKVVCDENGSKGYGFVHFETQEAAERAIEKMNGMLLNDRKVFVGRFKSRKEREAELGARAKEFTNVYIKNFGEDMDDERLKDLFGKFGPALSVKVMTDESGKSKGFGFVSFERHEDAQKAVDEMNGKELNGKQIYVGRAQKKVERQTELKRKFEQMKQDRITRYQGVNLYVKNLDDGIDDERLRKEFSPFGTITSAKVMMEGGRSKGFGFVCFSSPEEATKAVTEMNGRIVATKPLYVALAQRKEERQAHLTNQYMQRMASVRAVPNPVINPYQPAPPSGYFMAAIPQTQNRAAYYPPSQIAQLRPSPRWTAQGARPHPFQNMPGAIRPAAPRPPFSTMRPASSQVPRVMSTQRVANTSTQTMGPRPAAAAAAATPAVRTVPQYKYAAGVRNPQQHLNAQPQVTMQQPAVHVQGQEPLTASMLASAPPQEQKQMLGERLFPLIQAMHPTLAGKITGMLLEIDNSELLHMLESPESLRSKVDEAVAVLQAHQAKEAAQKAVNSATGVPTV
T6 sequence (Q8VNN2 whole entry): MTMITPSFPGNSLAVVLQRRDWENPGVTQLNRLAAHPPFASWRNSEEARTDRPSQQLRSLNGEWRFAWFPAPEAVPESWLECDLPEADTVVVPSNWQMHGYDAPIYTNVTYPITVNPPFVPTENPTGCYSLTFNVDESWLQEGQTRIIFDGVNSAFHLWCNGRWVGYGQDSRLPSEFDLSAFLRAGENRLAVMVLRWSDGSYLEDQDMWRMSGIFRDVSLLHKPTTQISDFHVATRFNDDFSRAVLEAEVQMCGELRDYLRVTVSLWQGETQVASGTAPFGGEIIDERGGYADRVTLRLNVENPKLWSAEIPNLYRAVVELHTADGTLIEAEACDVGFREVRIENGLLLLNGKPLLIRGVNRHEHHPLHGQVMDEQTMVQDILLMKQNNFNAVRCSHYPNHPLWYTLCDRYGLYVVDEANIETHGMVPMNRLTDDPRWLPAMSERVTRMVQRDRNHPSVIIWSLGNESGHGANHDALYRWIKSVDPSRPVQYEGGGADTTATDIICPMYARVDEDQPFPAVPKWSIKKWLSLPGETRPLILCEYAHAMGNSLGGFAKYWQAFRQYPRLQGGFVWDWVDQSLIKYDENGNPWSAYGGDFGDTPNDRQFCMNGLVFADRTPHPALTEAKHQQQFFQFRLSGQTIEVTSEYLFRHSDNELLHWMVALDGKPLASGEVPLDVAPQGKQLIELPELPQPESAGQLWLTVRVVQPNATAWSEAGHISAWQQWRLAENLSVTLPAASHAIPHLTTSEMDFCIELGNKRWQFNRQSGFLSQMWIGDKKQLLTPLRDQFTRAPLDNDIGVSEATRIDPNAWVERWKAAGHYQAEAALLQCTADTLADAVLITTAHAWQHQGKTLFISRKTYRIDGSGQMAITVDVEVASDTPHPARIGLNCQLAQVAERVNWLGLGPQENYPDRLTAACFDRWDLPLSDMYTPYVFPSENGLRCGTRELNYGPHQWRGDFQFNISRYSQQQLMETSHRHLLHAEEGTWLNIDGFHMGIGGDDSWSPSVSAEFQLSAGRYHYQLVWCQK
T1 sequence (Q00975 whole entry): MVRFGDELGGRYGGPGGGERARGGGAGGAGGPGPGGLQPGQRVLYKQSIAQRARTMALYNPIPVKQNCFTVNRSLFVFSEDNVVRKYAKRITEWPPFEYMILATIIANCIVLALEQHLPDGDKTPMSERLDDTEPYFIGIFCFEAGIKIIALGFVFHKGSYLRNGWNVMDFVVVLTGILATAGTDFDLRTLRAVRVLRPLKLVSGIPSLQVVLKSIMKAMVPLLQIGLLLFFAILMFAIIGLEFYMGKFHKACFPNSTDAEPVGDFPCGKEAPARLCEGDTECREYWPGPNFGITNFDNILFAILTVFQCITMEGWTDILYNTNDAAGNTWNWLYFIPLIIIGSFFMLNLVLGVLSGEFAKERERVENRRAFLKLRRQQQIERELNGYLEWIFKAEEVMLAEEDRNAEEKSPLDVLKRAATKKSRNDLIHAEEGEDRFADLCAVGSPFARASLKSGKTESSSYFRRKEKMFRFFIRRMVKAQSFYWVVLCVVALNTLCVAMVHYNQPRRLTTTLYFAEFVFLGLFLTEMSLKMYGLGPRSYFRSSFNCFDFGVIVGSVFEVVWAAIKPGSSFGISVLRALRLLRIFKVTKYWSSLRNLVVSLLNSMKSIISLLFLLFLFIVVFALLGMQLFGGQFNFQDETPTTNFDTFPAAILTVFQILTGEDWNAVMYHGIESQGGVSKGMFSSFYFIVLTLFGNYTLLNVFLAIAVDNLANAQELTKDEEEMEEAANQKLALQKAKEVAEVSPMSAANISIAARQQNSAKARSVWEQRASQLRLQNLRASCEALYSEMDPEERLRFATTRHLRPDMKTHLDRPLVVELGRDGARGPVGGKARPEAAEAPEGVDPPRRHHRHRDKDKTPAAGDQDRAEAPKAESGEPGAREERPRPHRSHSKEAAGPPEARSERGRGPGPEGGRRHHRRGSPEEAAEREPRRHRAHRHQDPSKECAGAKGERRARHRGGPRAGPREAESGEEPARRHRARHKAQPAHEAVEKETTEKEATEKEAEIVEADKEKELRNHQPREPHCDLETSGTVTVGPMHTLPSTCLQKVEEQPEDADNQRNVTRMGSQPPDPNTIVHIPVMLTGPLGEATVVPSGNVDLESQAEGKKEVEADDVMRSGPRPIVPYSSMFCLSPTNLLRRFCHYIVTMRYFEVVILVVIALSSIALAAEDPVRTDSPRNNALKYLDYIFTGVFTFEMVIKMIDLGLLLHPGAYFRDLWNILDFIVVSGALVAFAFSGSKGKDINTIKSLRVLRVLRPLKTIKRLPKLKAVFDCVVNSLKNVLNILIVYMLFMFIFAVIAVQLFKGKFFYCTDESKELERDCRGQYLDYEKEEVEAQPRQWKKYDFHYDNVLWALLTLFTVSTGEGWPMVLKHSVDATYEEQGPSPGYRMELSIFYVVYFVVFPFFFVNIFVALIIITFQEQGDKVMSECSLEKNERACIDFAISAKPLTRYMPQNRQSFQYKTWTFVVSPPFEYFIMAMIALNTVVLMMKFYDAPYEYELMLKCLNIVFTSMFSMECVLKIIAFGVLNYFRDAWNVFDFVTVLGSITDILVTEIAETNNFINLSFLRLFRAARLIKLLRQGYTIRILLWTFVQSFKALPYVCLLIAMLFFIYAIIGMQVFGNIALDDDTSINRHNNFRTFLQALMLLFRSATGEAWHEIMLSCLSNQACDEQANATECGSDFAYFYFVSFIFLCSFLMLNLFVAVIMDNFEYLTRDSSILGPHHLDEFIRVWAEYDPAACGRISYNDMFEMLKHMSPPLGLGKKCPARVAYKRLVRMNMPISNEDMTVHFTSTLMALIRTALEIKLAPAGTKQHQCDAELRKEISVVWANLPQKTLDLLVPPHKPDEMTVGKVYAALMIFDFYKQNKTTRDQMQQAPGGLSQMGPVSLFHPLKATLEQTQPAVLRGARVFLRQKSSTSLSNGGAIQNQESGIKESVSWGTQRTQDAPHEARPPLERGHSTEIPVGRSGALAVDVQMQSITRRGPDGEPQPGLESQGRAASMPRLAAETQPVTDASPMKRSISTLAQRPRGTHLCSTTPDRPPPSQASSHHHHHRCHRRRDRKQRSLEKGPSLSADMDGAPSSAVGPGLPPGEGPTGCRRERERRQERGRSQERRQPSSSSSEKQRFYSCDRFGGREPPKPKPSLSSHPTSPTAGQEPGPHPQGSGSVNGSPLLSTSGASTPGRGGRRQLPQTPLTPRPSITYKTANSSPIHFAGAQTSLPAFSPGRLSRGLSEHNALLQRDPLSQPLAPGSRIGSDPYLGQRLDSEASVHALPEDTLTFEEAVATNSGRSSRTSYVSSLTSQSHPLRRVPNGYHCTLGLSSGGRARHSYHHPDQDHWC
T1 sequence (Q02410 whole entry): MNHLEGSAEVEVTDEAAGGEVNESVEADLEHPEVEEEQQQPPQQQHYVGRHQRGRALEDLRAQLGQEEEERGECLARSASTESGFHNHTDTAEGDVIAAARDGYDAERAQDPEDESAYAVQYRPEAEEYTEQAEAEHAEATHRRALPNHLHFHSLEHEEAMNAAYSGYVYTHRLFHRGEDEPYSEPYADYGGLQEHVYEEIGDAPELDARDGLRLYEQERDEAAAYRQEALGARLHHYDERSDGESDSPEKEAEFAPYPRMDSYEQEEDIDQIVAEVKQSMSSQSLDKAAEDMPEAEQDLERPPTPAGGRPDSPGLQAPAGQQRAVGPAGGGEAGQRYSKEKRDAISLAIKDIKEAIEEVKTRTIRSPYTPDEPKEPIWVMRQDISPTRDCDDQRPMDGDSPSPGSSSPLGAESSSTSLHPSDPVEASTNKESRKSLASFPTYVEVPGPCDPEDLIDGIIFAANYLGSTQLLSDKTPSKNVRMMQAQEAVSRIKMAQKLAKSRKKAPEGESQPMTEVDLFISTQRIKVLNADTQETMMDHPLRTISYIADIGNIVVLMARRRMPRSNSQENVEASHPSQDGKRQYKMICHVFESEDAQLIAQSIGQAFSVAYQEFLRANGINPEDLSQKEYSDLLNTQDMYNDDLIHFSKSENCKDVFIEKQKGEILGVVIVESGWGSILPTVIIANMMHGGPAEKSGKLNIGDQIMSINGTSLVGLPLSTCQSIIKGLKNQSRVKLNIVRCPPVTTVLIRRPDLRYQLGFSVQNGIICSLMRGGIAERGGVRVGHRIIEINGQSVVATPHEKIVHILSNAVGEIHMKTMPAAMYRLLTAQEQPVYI
Chain of DNA damage-inducible transcript 3 protein (P35639 whole entry): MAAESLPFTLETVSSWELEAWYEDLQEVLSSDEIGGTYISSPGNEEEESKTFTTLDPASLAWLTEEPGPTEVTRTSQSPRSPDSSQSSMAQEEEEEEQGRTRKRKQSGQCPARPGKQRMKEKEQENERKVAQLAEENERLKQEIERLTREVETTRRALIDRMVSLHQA

O=C(O)CCn1cc(C=C2C(=O)NC(=S)NC2=O)c(-c2ccccc2)n1
IC50 (Genome polyprotein): 7.65 µM (active) | IC50 [1]: 19.8 µM (active) | IC50 [2]: 86.5 µM (active) | IC50 [3]: 13.1 µM (active) | IC50 [4]: > 66 µM (inactive) | IC50 [5]: > 66 µM (inactive)

CCOC(=O)c1sc(NN=C2C(=O)NC(=O)NC2=O)c(C(=O)OCC)c1C
Absolute IC50 (CHOP) [6]: 10 µM

O=C(CSc1nnc(COc2ccccc2)o1)N1CCN(c2ccccc2)CC1
EC50 (Troponin, cardiac muscle): > 71.5 µM (inactive)

COc1ccc(C2c3ccc(O)cc3Oc3ncn4nc(-c5cccnc5)nc4c32)cc1OC (stereo not drawn)
EC50 [7]: > 120 µM (not active) | IC50 [8]: 1.99 µM (active) | EC50 [9]: 52.3 µM (active) | EC50 [10]: > 120 µM (not active)

COc1cc2nc(N(CCCN(C)C)C(=O)c3ccc(S(=O)(=O)N4CCc5ccccc5C4)cc3)sc2cc1OC
EC50 (cells): 0.569 µM (active) | EC50 [11]: > 60 µM (not active) | IC50 [12]: 8.69 µM (active) | IC50 [13]: 8.3 µM (active) | EC50 [14]: < 0.1 µM (active) | IC50 (Bcl-2-related protein A1): > 20 µM (inactive)

O=C1NC(=O)N(CCc2ccc(F)cc2)C(=O)/C1=C/c1ccco1
IC50 [15]: 20.5 µM (active) | IC50 [1]: > 50 µM (inactive) | IC50 [3]: 14.8 µM (active) | IC50 [16]: 15 µM (active) | IC50 (Large T antigen): 12.3 µM (active)

CC1=C(C)C[S+]([O-])N(S(=O)(=O)c2ccccc2)C1 (stereo not drawn)
IC50 [1]: > 50 µM (inactive) | IC50 [3]: 41.7 µM (active) | IC50 (Large T antigen): 19 µM (active)

C=CCNC(=O)/C(C#N)=C/c1ccc(OS(=O)(=O)c2ccc(C)cc2)c(OC)c1
EC50 [17]: 26.6 µM (active) | IC50 [8]: 1.93 µM (active) | EC50 [18]: 28.1 µM (active) | IC50 (Beta-galactosidase [19]): > 80 µM (inactive)

COc1ccc(C(=O)Nc2cccc3ncccc23)cc1
IC50 [20]: > 100 µM (inactive) | IC50 [21]: > 100 µM (inactive)

Oc1c(/C=N/c2cccc3cccnc23)sc2ccccc12
EC50 (Streptococcus): 9.99 µM (active) | EC50 [11]: > 60 µM (not active) | IC50 [22]: 1.12 µM | EC50 [23]: 7.7 µM (active) | IC50 [24]: 4.86 µM (active) | EC50 [14]: 2.58 µM (active) | IC50 [25]: 2.78 µM (active) | IC50 (Estrogen receptor): 5.15 µM (active) | EC50 (Streptokinase A): > 150 µM (not active) | EC50 (Beta-galactosidase [26]): > 31.5 µM (inactive) | EC50 (Beta-galactosidase [27]): > 40 µM (inactive)
